Assay results from PubChem BioAssay (NCI).
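At the GI50, growth is halved. TGI is the concentration that stops growth completely.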

How the values were obtained:
Experiment in all cases: NCI anticancer screen, dose series, 384-well format
[1] = tested on: 786-0 renal
[2] = tested on: A498 renal
[3] = tested on: A549 NSCLC
[4] = tested on: ACHN renal
[5] = tested on: BT-549 breast
[6] = tested on: CAKI-1 renal
[7] = tested on: CCRF-CEM leukemia
[8] = tested on: COLO 205 colon
[9] = tested on: DU-145 prostate
[10] = tested on: EKVX NSCLC
[11] = tested on: HCC-2998 colon
[12] = tested on: HCT-116 colon
[13] = tested on: HCT-15 colon
[14] = tested on: HL-60(TB) leukemia
[15] = tested on: HOP-62 NSCLC
[16] = tested on: HOP-92 NSCLC
[17] = tested on: HS 578T breast
[18] = tested on: HT29 colon
[19] = tested on: IGROV1 ovarian
[20] = tested on: K-562 leukemia
[21] = tested on: KM12 colon
[22] = tested on: LOX IMVI melanoma
[23] = tested on: M14 melanoma
[24] = tested on: MALME-3M melanoma
[25] = tested on: MCF7 breast
[26] = tested on: MDA-MB-435 melanoma
[27] = tested on: MDA-MB-468 breast
[28] = tested on: MOLT-4 leukemia
[29] = tested on: NCI-H226 lung
[30] = tested on: NCI-H23 lung
[31] = tested on: NCI-H322M lung
[32] = tested on: NCI-H460 NSCLC
[33] = tested on: NCI-H522 lung
[34] = tested on: NCI/ADR-RES ovarian
[35] = tested on: OVCAR-3 ovarian
[36] = tested on: OVCAR-4 ovarian
[37] = tested on: OVCAR-8 ovarian
[38] = tested on: PC-3 prostate
[39] = tested on: RPMI-8226 leukemia
[40] = tested on: RXF 393 renal
[41] = tested on: SF-268 CNS
[42] = tested on: SF-295 CNS
[43] = tested on: SF-539 CNS
[44] = tested on: SK-MEL-2 melanoma
[45] = tested on: SK-MEL-28 melanoma
[46] = tested on: SK-MEL-5 melanoma
[47] = tested on: SK-OV-3 ovarian
[48] = tested on: SN12C renal
[49] = tested on: SNB-19 CNS
[50] = tested on: SNB-75 CNS
[51] = tested on: SW-620 colon
[52] = tested on: TK-10 renal
[53] = tested on: U251 glioblastoma
[54] = tested on: UACC-257 melanoma
[55] = tested on: UACC-62 melanoma
[56] = tested on: MDA-MB-231 breast
[57] = tested on: OVCAR-5 ovarian
[58] = tested on: T-47D breast
[59] = tested on: UO-31 renal

Which results are given for `CC(C)N=C(N)/N=C(\N)Nc1ccc2ccc3ccccc3c2c1`?
GI50 [1]: 1750 nM; TGI [1]: 3140 nM; GI50 [2]: 1560 nM; TGI [2]: 2910 nM; GI50 [3]: 1730 nM; TGI [3]: 3140 nM; GI50 [4]: 1590 nM; TGI [4]: 2950 nM; GI50 [5]: 1490 nM; TGI [5]: 2830 nM; GI50 [6]: 1480 nM; TGI [6]: 2820 nM; GI50 [7]: 1440 nM; TGI [7]: 2770 nM; GI50 [8]: 1760 nM; TGI [8]: 3160 nM; GI50 [9]: 1790 nM; TGI [9]: 3230 nM; GI50 [10]: 1660 nM; TGI [10]: 3060 nM; GI50 [11]: 1400 nM; TGI [11]: 2710 nM; GI50 [12]: 1710 nM; TGI [12]: 3140 nM; GI50 [13]: 1670 nM; TGI [13]: 3070 nM; GI50 [14]: 1410 nM; TGI [14]: 2720 nM; GI50 [15]: 2070 nM; TGI [15]: 3510 nM; GI50 [16]: 1560 nM; TGI [16]: 2900 nM; GI50 [17]: 1720 nM; TGI [17]: 3100 nM; GI50 [18]: 1710 nM; TGI [18]: 3130 nM; GI50 [19]: 1020 nM; TGI [19]: 2210 nM; GI50 [20]: 1890 nM; TGI [20]: 3300 nM; GI50 [21]: 1820 nM; TGI [21]: 3250 nM; GI50 [22]: 1560 nM; TGI [22]: 2920 nM; GI50 [23]: 1890 nM; TGI [23]: 3300 nM; GI50 [24]: 1430 nM; TGI [24]: 2750 nM; GI50 [25]: 507 nM; TGI [25]: 1850 nM; GI50 [26]: 1730 nM; TGI [26]: 3120 nM; GI50 [27]: 242 nM; TGI [27]: 1470 nM; GI50 [28]: 1360 nM; TGI [28]: 2650 nM; GI50 [29]: 1640 nM; TGI [29]: 3010 nM; GI50 [30]: 1530 nM; TGI [30]: 2860 nM; GI50 [31]: 1840 nM; TGI [31]: 3250 nM; GI50 [32]: 1750 nM; TGI [32]: 3170 nM; GI50 [33]: 1560 nM; TGI [33]: 2910 nM; GI50 [34]: 10000 nM; TGI [34]: 21800 nM; GI50 [35]: 1600 nM; TGI [35]: 2950 nM; GI50 [36]: 1300 nM; TGI [36]: 2580 nM; GI50 [37]: 1700 nM; TGI [37]: 3100 nM; GI50 [38]: 1520 nM; TGI [38]: 2870 nM; GI50 [39]: 1720 nM; TGI [39]: 3100 nM; GI50 [40]: 1580 nM; TGI [40]: 2930 nM; GI50 [41]: 1870 nM; TGI [41]: 3290 nM; GI50 [42]: 1650 nM; TGI [42]: 3020 nM; GI50 [43]: 1740 nM; TGI [43]: 3130 nM; GI50 [44]: 1840 nM; TGI [44]: 3240 nM; GI50 [45]: 1850 nM; TGI [45]: 3270 nM; GI50 [46]: 1110 nM; TGI [46]: 2330 nM; GI50 [47]: 1420 nM; TGI [47]: 2730 nM; GI50 [48]: 1650 nM; TGI [48]: 3020 nM; GI50 [49]: 1760 nM; TGI [49]: 3160 nM; GI50 [50]: 1610 nM; TGI [50]: 2960 nM; GI50 [51]: 1800 nM; TGI [51]: 3230 nM; GI50 [52]: 1730 nM; TGI [52]: 3110 nM; GI50 [53]: 1790 nM; TGI [53]: 3190 nM; GI50 [54]: 1480 nM; TGI [54]: 2820 nM; GI50 [55]: 1490 nM; TGI [55]: 2830 nM

What does the source list for `CCCCC(=O)OCC(=O)[C@]1(O)Cc2c(O)c3c(c(O)c2[C@@H](OC2CC(NC(=O)C(F)(F)F)C(O)C(C)O2)C1)C(=O)c1c(OC)cccc1C3=O` (some centres undefined)?
GI50 [1]: 64.2 nM; TGI [1]: 1980 nM; GI50 [2]: 87.5 nM; TGI [2]: 2870 nM; GI50 [3]: 84.4 nM; TGI [3]: 1780 nM; GI50 [4]: 213 nM; TGI [4]: 1890 nM; GI50 [5]: 73.8 nM; TGI [5]: 1440 nM; GI50 [6]: 128 nM; TGI [6]: 2530 nM; GI50 [7]: 17.3 nM; TGI [7]: 32.3 nM; GI50 [9]: 37.1 nM; TGI [9]: 1000 nM; GI50 [12]: 49 nM; TGI [12]: 34000 nM; GI50 [13]: 98.5 nM; TGI [13]: 1620 nM; TGI [14]: 16.6 nM; GI50 [15]: 42.1 nM; TGI [15]: 327 nM; GI50 [16]: 142 nM; TGI [16]: 19200 nM; GI50 [17]: 122 nM; TGI [17]: 1870 nM; GI50 [18]: 303 nM; TGI [18]: 2290 nM; GI50 [19]: 1110 nM; TGI [19]: 3860 nM; GI50 [20]: 104 nM; TGI [20]: 1760 nM; GI50 [21]: 99.6 nM; TGI [21]: 1700 nM; GI50 [23]: 73.2 nM; TGI [23]: 1380 nM; GI50 [24]: 188 nM; TGI [24]: 1660 nM; GI50 [25]: 84.9 nM; TGI [25]: 7560 nM; GI50 [56]: 126 nM; TGI [56]: 2100 nM; GI50 [26]: 738 nM; TGI [26]: 2630 nM; GI50 [27]: 29.9 nM; TGI [27]: 85.9 nM; TGI [28]: 10.4 nM; GI50 [29]: 122 nM; TGI [29]: 1190 nM; GI50 [30]: 60.3 nM; TGI [30]: 1150 nM; GI50 [31]: 2420 nM; TGI [31]: 15200 nM; GI50 [33]: 101 nM; TGI [33]: 1000 nM; GI50 [34]: 7460 nM; TGI [34]: 44100 nM; GI50 [35]: 1200 nM; TGI [35]: 44500 nM; GI50 [36]: 1680 nM; TGI [36]: 7010 nM; GI50 [57]: 1240 nM; TGI [57]: 5620 nM; GI50 [37]: 73.3 nM; TGI [37]: 1810 nM; GI50 [38]: 1020 nM; TGI [38]: 4020 nM; GI50 [39]: 12.9 nM; TGI [39]: 36 nM; GI50 [40]: 320 nM; TGI [40]: 1940 nM; GI50 [41]: 70.2 nM; TGI [41]: 2110 nM; GI50 [42]: 53.6 nM; TGI [42]: 1460 nM; GI50 [43]: 73.1 nM; TGI [43]: 1340 nM; GI50 [44]: 372 nM; TGI [44]: 991 nM; GI50 [45]: 468 nM; TGI [45]: 2020 nM; GI50 [47]: 107 nM; TGI [47]: 5440 nM; GI50 [48]: 60.6 nM; TGI [48]: 1370 nM; GI50 [49]: 64.8 nM; TGI [49]: 11900 nM; GI50 [50]: 142 nM; TGI [50]: 1290 nM; GI50 [51]: 75.3 nM; TGI [51]: 16200 nM; GI50 [58]: 96.2 nM; TGI [58]: 2570 nM; GI50 [52]: 997 nM; TGI [52]: 5090 nM; GI50 [53]: 45 nM; TGI [53]: 10400 nM; GI50 [54]: 404 nM; TGI [54]: 1740 nM; GI50 [55]: 50.6 nM; TGI [55]: 1020 nM; GI50 [59]: 1480 nM; TGI [59]: 2990 nM
